Experimental findings from PubChem BioAssay (NCI) are described below.

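Step 1: Grow cells in 96-well plates. Step 2: Expose to compound for 48 hours at 5 concentrations. Step 3: Interpolate endpoints linearly; if unreached, use highest concentration. Abbreviation: GI50, concentration required for 50% inhibition of growth. Definition used: TGI = concentration required for complete inhibition of growth.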

One assay deals with SN12C renal. The assay is described as follows: NCI anticancer screen, dose series, 48 h.
Regarding `COC(=O)[C@H](C[C@H](Cc1ccccc1)NC(=O)c1csc([C@@H](C[C@H](C(C)C)N(C)C(=O)[C@@H](NC(=O)[C@H]2CCCCN2C)C(C)C)OC(C)=O)n1)NC(=O)OCc1ccccc1`, the GI50 is under 0.0009 µM and the TGI is over 9 µM.

Take `COC(C(=O)[O][Ge]([CH3])([CH3])[CH3])c1ccccc1` (stereo not given): the GI50 is over 100 µM and the TGI was over 100 µM.

Take `CC(=O)OCC1OC(OC2C(CSC3OC(COC(C)=O)C(OC(C)=O)C(OC(C)=O)C3OC(C)=O)OC(OC(C)=O)C(OC(C)=O)C2OC(C)=O)C(OC(C)=O)C(OC(C)=O)C1OC(C)=O` (stereo not given): the TGI was over 100 µM.

With `NNC(=O)/C(=C/c1ccc(Cl)cc1Cl)NC(=O)c1ccccc1`, the TGI is over 100 µM.

On to `Nc1ccccc1C#C/C=C\C#Cc1cccs1`, for which the GI50 is 4.62 µM and the TGI was 16.7 µM.

For `COc1ccc2c(c1)cn1c3ccc(O)cc3nc(N)c21`, the GI50 is 0.342 µM and the TGI was 19.1 µM.

Consider `O=C(O)/C=C\C(=O)N1C/C(=C\c2ccccc2Cl)C(=O)/C(=C/c2ccccc2Cl)C1`, for which the GI50 was 2.93 µM and the TGI amounted to 9.31 µM.

As to `CC#C[C@]1(O)CC[C@H]2[C@@H]3CCC4=CC(=O)CCC4=C3[C@@H](c3ccc4c(c3)OCO4)C[C@@]21C`, the GI50 is 83.2 µM and the TGI was 464 µM.

A further assay deals with U251 CNS. The experiment in a line: NCI anticancer screen, dose series, 48 h.
For the compound `COc1ccc(-c2c3c(N)nc(-c4ccncc4)nc3nc3c2c(C)nn3-c2ccccc2)cc1`, the GI50 was 3.6 µM and the TGI is 19 µM.

Consider `C#CCOCn1cnc2c(Cl)ncnc21`, for which the TGI was over 100 µM.

Consider `Oc1cccc2ccc(N/N=C/c3cc(CN4CCCCC4)c(O)c4ncccc34)nc12`, for which the GI50 was 0.0329 µM and the TGI was found to be 1.28 µM.

With `COc1cccc(-n2ncc3c(N/N=C/c4ccc(C(=O)NCCN(C)C)cc4)ncnc32)c1`, the GI50 was 3.25 µM and the TGI turned out to be 6.77 µM.

As for `O=c1/c(=C/c2ccccc2F)sc2nc3ccccc3n12`, the TGI was over 100 µM.

Regarding `CC1(C)CC(=O)c2c(C(F)(F)F)nn(-c3ccc(C(N)=O)c(NC4CCC(OC(=O)CN)CC4)c3)c2C1` (stereo not given), the GI50 is 0.0731 µM and the TGI was over 54.2 µM.

With `O=C(NCCCCCCNC(=O)n1cc(F)c(=O)[nH]c1=O)NCCCOCCOCCOCCOCCOCCOCCOCCOCCOCCOCCOCCOCCOCCOCCOCCOCCOCCOCCOCCOCCOCCCNC(=O)C(O)C(O)C(O)C(O)CO` (stereo not given), the TGI was over 100 µM.

With `COc1cc(C2CC(c3ccc4c(c3)OCO4)=NN2C=O)cc(OC)c1OC` (stereo not given), the GI50 was 4.42 µM and the TGI was over 100 µM.

In turn, `CCCC(=O)OC1C(C(O)CO)OC2OC(C)(C)OC21` (stereo not given) yielded a TGI of over 100 µM.

As to `COC(=O)[C@H](C[C@H](Cc1ccccc1)NC(=O)c1csc([C@@H](C[C@H](C(C)C)N(C)C(=O)[C@@H](NC(=O)[C@H]2CCCCN2C)C(C)C)OC(C)=O)n1)NC(=O)OCc1ccccc1`, the GI50 is under 0.0009 µM and the TGI was over 9 µM.

For the compound `COC(C(=O)[O][Ge]([CH3])([CH3])[CH3])c1ccccc1` (stereo not given), the GI50 is over 100 µM and the TGI is over 100 µM.

`CC(=O)OCC1OC(OC2C(CSC3OC(COC(C)=O)C(OC(C)=O)C(OC(C)=O)C3OC(C)=O)OC(OC(C)=O)C(OC(C)=O)C2OC(C)=O)C(OC(C)=O)C(OC(C)=O)C1OC(C)=O` (stereo not given) came in with a TGI of over 100 µM.

In the case of `NNC(=O)/C(=C/c1ccc(Cl)cc1Cl)NC(=O)c1ccccc1`, the TGI is over 100 µM.

For the compound `Nc1ccccc1C#C/C=C\C#Cc1cccs1`, the GI50 is 8.34 µM and the TGI turned out to be 27.5 µM.

`COc1ccc2c(c1)cn1c3ccc(O)cc3nc(N)c21`: the GI50 was 0.0547 µM and the TGI came to 4.11 µM.

Regarding `O=C(O)/C=C\C(=O)N1C/C(=C\c2ccccc2Cl)C(=O)/C(=C/c2ccccc2Cl)C1`, the GI50 was 0.472 µM and the TGI is 1.88 µM.

As to `CC#C[C@]1(O)CC[C@H]2[C@@H]3CCC4=CC(=O)CCC4=C3[C@@H](c3ccc4c(c3)OCO4)C[C@@]21C`, the GI50 is 108 µM and the TGI came to 410 µM.

In the next assay the test system is UACC-62 melanoma. The assay is described as follows: NCI anticancer screen, dose series, 48 h.
As for `COc1ccc(-c2c3c(N)nc(-c4ccncc4)nc3nc3c2c(C)nn3-c2ccccc2)cc1`, the GI50 is 4.87 µM and the TGI stood at 51.9 µM.

`C#CCOCn1cnc2c(Cl)ncnc21` came in with a TGI of over 100 µM.

Take `Oc1cccc2ccc(N/N=C/c3cc(CN4CCCCC4)c(O)c4ncccc34)nc12`: the GI50 is 0.0459 µM and the TGI worked out at 4.9 µM.

On to `COc1cccc(-n2ncc3c(N/N=C/c4ccc(C(=O)NCCN(C)C)cc4)ncnc32)c1`, for which the GI50 was 3.72 µM and the TGI came out at 7.39 µM.

`O=c1/c(=C/c2ccccc2F)sc2nc3ccccc3n12` gave a TGI of over 100 µM.

With `CC1(C)CC(=O)c2c(C(F)(F)F)nn(-c3ccc(C(N)=O)c(NC4CCC(OC(=O)CN)CC4)c3)c2C1` (stereo not given), the GI50 was 0.0507 µM and the TGI came to 14.5 µM.

`O=C(NCCCCCCNC(=O)n1cc(F)c(=O)[nH]c1=O)NCCCOCCOCCOCCOCCOCCOCCOCCOCCOCCOCCOCCOCCOCCOCCOCCOCCOCCOCCOCCOCCOCCCNC(=O)C(O)C(O)C(O)C(O)CO` (stereo not given) yielded a TGI of over 100 µM.

For `COc1cc(C2CC(c3ccc4c(c3)OCO4)=NN2C=O)cc(OC)c1OC` (stereo not given), the GI50 is 2.21 µM and the TGI was over 100 µM.

For the compound `CCCC(=O)OC1C(C(O)CO)OC2OC(C)(C)OC21` (stereo not given), the TGI was over 100 µM.

As to `COC(=O)[C@H](C[C@H](Cc1ccccc1)NC(=O)c1csc([C@@H](C[C@H](C(C)C)N(C)C(=O)[C@@H](NC(=O)[C@H]2CCCCN2C)C(C)C)OC(C)=O)n1)NC(=O)OCc1ccccc1`, the GI50 was under 0.0009 µM and the TGI was over 9 µM.

As to `COC(C(=O)[O][Ge]([CH3])([CH3])[CH3])c1ccccc1` (stereo not given), the GI50 is over 100 µM and the TGI was over 100 µM.

Consider `CC(=O)OCC1OC(OC2C(CSC3OC(COC(C)=O)C(OC(C)=O)C(OC(C)=O)C3OC(C)=O)OC(OC(C)=O)C(OC(C)=O)C2OC(C)=O)C(OC(C)=O)C(OC(C)=O)C1OC(C)=O` (stereo not given), for which the TGI was over 100 µM.

`NNC(=O)/C(=C/c1ccc(Cl)cc1Cl)NC(=O)c1ccccc1` gave a TGI of over 100 µM.

For `Nc1ccccc1C#C/C=C\C#Cc1cccs1`, the GI50 was 5.96 µM and the TGI came out at 19.4 µM.

As for `COc1ccc2c(c1)cn1c3ccc(O)cc3nc(N)c21`, the GI50 is 0.09 µM and the TGI is 20 µM.

With `O=C(O)/C=C\C(=O)N1C/C(=C\c2ccccc2Cl)C(=O)/C(=C/c2ccccc2Cl)C1`, the GI50 was 1.88 µM and the TGI was determined as 3.97 µM.

For the compound `CC#C[C@]1(O)CC[C@H]2[C@@H]3CCC4=CC(=O)CCC4=C3[C@@H](c3ccc4c(c3)OCO4)C[C@@]21C`, the GI50 is 50 µM and the TGI is 204 µM.
